These results are taken from patent US12552775B2, “Compounds and uses thereof” (Foghorn Therapeutics Inc., priority 2020, dated 2026).

The target in assay [1] is T1, HiBit-BRG1 fusion protein (Homo sapiens, UniProt P51532).
T1 construct: expressed in transfected cells
Description: HiBiT-BRG1 cell-based degradation assay (Nano-Glo HiBiT Lytic Detection, 24 h). The conditions noted are these: stable HeLa cell line expressing HiBit-BRG1 and LgBit, top dose 30 μM, read-out: BRG1 HiBit Degradation Maximum (%). Put shortly: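 HeLa cells stably expressing HiBiT-BRG1 plus LgBiT were treated with 10-point 3-fold compound dilutions (top 30 μM final) for 24 h. Lytic Nano-Glo HiBiT luminescence was read. % degradation was normalised between DMSO (high control) and 2 μM of a reference BRM/BRG1 degrader (low control).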

A further assay concerns the target T2, HiBit-BRM fusion protein (Homo sapiens, UniProt P51531).
T2 construct: expressed in transfected cells
Description: HiBiT-BRM cell-based degradation assay (Nano-Glo HiBiT Lytic Detection, 24 h). As to conditions: stable HeLa cell line expressing HiBiT-BRM, top dose 30 μM. An outline of the steps:
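Stable HiBiT-BRM HeLa cells treated 24 h with 10-point 3-fold dilutions, top final dose 30 μM, in duplicate. Luminescence read after lytic LgBiT reagent. Percent degradation was normalised to DMSO (high control) and 2 μM reference BRM/BRG1 degrader (low control).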

T1 sequence (P51532 whole entry, the tested form may be a part): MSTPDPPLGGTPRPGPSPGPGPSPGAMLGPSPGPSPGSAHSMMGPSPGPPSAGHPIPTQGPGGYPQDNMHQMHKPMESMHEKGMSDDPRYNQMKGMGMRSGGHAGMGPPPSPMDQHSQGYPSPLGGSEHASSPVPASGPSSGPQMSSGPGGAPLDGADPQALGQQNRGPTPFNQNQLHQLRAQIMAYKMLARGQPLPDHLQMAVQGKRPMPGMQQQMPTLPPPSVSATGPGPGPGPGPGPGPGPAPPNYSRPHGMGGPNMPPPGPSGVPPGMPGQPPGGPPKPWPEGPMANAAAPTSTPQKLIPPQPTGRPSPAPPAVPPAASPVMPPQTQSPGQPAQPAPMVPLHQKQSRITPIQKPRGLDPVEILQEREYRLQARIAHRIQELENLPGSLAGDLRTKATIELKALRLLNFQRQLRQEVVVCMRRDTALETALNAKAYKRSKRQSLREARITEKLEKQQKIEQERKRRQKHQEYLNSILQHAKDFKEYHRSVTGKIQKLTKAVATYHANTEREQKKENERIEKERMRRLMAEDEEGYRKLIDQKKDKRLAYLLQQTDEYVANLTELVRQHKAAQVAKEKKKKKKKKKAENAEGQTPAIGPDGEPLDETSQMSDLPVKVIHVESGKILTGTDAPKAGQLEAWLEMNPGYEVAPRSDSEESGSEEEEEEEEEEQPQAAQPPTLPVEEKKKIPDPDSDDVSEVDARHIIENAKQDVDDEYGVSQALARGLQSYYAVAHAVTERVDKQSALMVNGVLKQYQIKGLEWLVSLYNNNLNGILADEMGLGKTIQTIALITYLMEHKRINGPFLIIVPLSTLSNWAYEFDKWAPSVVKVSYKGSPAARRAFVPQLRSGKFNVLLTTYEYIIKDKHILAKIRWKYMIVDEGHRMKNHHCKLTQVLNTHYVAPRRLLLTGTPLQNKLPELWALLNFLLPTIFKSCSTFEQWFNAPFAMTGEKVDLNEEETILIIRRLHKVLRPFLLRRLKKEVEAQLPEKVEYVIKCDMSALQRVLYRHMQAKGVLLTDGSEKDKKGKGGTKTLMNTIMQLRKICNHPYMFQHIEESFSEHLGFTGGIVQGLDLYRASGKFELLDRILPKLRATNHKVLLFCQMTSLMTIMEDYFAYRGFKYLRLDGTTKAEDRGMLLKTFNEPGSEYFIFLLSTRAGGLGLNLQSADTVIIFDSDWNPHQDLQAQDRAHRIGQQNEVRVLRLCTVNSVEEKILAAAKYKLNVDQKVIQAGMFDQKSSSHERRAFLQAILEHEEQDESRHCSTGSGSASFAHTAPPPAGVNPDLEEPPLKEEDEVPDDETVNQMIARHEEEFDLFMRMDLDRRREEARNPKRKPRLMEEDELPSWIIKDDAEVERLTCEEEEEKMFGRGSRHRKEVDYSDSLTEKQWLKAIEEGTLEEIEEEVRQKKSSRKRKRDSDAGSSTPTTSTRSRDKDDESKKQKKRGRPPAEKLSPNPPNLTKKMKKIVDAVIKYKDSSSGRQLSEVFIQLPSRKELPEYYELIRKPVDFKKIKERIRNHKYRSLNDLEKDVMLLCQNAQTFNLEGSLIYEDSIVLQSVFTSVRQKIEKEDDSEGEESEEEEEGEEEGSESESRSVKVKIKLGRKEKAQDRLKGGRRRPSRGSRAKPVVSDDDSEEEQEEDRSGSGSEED
T2 sequence (P51531 whole entry, the tested form may be a part): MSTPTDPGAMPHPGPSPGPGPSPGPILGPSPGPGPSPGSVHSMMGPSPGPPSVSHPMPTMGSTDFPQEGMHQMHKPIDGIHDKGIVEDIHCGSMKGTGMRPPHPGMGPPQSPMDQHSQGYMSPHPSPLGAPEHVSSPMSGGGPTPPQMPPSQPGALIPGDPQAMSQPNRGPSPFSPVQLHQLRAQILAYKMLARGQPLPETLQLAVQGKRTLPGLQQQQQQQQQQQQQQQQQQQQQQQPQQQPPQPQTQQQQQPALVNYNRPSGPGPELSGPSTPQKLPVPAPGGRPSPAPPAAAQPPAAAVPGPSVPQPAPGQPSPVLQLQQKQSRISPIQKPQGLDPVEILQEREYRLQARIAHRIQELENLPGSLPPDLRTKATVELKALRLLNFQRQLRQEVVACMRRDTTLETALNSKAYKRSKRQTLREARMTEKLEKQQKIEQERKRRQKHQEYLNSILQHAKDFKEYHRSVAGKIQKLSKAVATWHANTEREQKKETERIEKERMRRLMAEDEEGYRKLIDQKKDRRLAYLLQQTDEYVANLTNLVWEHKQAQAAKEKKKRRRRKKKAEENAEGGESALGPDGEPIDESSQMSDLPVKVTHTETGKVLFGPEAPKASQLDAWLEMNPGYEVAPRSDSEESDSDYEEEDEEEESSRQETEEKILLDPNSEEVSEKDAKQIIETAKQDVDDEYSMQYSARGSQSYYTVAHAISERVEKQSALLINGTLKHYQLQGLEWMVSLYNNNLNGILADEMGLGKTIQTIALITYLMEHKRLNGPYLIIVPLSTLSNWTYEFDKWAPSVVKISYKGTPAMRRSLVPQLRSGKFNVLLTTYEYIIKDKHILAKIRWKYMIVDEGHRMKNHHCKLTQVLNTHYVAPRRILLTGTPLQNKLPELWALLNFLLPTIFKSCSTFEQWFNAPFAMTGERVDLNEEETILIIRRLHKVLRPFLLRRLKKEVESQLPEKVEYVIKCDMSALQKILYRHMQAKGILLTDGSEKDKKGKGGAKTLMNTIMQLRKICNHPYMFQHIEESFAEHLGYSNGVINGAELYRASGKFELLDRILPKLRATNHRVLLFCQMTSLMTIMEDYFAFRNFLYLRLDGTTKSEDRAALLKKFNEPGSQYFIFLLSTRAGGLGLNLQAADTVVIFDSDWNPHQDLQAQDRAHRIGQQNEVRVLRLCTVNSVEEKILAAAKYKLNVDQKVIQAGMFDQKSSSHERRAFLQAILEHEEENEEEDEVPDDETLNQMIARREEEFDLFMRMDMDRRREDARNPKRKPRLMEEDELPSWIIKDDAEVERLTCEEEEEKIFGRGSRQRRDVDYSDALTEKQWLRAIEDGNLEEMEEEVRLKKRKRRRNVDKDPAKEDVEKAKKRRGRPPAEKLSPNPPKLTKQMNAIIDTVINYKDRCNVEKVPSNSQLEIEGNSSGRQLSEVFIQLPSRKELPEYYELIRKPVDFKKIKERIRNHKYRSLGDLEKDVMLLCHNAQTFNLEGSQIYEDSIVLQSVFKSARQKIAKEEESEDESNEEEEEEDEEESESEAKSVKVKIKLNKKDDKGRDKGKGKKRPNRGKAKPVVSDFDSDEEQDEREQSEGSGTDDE

Consider `Nc1nnc(-c2ccccc2O)cc1OCC12CC(C(=O)NCCOCCOCCNc3cccc4c3CN(C3CCC(=O)NC3=O)C4=O)(C1)C2` (stereo not drawn) [Compound 60, 3-(((3-amino-6-(2-hydroxyphenyl)pyridazin-4-yl)oxy)methyl)-N-(2-(2-(2-((2-(2,6-dioxopiperidin-3-yl)-1-oxoisoindolin-4-yl)amino)ethoxy)ethoxy)ethyl)bicyclo[1.1.1]pentane-1-carboxamide], for which the Dmax in assay [1] is less than 50%. Moreover, on HiBit-BRM fusion protein, the “BRM HiBit Degradation Maximum (%)” value is “C (“C” indicates maximum degradation < 50%)”.

`Cc1ncsc1-c1ccc(CNC(=O)[C@@H]2C[C@@H](O)CN2C(=O)[C@@H](NC(=O)CCCCCCCCCCCCCCC(=O)NCC23CC(COc4cc(-c5ccccc5O)nnc4N)(C2)C3)C(C)(C)C)cc1` [Compound 41, N1-((3-(((3-amino-6-(2-hydroxyphenyl)pyridazin-4-yl)oxy)methyl)bicyclo[1.1.1]pentan-1-yl)methyl)-N16-((S)-1-((2S,4R)-4-hydroxy-2-((4-(4-methylthiazol-5-yl)benzyl)carbamoyl)pyrrolidin-1-yl)-3,3-dimethyl-1-oxobutan-2-yl)hexadecanediamide]: the Dmax in assay [1] was less than 50%. Moreover, the “BRM HiBit Degradation Maximum (%)” value on HiBit-BRM fusion protein is “B (“B” indicates maximum degradation ≥ 50%)”.

For `Cc1ncsc1-c1ccc(CNC(=O)[C@@H]2C[C@@H](O)CN2C(=O)[C@@H](NC(=O)CCCCCCCCCC(=O)NC23CC(CCOc4cc(-c5ccccc5O)nnc4N)(C2)C3)C(C)(C)C)cc1` [Compound 48, N1-(3-(2-((3-amino-6-(2-hydroxyphenyl)pyridazin-4-yl)oxy)ethyl)bicyclo[1.1.1]pentan-1-yl)-N11-((S)-1-((2S,4R)-4-hydroxy-2-((4-(4-methylthiazol-5-yl)benzyl)carbamoyl)pyrrolidin-1-yl)-3,3-dimethyl-1-oxobutan-2-yl)undecanediamide; formic acid], in assay [1], the Dmax was more than 50%. The “BRM HiBit Degradation Maximum (%)” value at HiBit-BRM fusion protein is on record as “B (“B” indicates maximum degradation ≥ 50%)”.

On to `Cc1ncsc1-c1ccc(CNC(=O)[C@@H]2C[C@@H](O)CN2C(=O)[C@@H](NC(=O)CCCCCCCCCNC(=O)C23CC(COc4cc(-c5ccccc5O)nnc4N)(C2)C3)C(C)(C)C)cc1` [Compound 72, (2S,4R)-1-((S)-2-(10-(3-(((3-amino-6-(2-hydroxyphenyl)pyridazin-4-yl)oxy)methyl)bicyclo[1.1.1]pentane-1-carboxamido)decanamido)-3,3-dimethylbutanoyl)-4-hydroxy-N-(4-(4-methylthiazol-5-yl)benzyl)pyrrolidine-2-carboxamide], for which the Dmax in assay [1] is less than 50%. Moreover, on HiBit-BRM fusion protein, the “BRM HiBit Degradation Maximum (%)” value was “B (“B” indicates maximum degradation ≥ 50%)”.

Turning to `Nc1nnc(-c2ccccc2O)cc1OCC12CC(C(=O)NCCCCS(=O)(=O)CCCNc3cccc4c3C(=O)N(C3CCC(=O)NC3=O)C4=O)(C1)C2` (stereo not drawn) [Compound 73, 3-(((3-amino-6-(2-hydroxyphenyl)pyridazin-4-yl)oxy)methyl)-N-(4-((3-((2-(2,6-dioxopiperidin-3-yl)-1,3-dioxoisoindolin-4-yl)amino)propyl)sulfonyl)butyl)bicyclo[1.1.1]pentane-1-carboxamide], in assay [1], the Dmax was less than 50%. On HiBit-BRM fusion protein, the “BRM HiBit Degradation Maximum (%)” value is reported as “C (“C” indicates maximum degradation < 50%)”.

In the case of `Nc1nnc(-c2ccccc2O)cc1OCC12CC(CNC(=O)CCCCCCCCNc3cccc4c3C(=O)N(C3CCC(=O)NC3=O)C4=O)(C1)C2` (stereo not drawn) [Compound 7, N-[[3-([[3-amino-6-(2-hydroxyphenyl)pyridazin-4-yl]oxy]methyl)bicyclo[1.1.1]pentan-1-yl]methyl]-9-[[2-(2,6-dioxopiperidin-3-yl)-1,3-dioxoisoindol-4-yl]amino]nonanamide], the Dmax in assay [1] is less than 50%. Further, the “BRM HiBit Degradation Maximum (%)” value on HiBit-BRM fusion protein is recorded as “C (“C” indicates maximum degradation < 50%)”.
